Data: article PMC5762315, “Inhibition of polo-like kinase 4 (PLK4): a new therapeutic option for rhabdoid tumors and pediatric medulloblastoma” (Oncotarget, 2017)
pIC50: −log10 of the molar value. Where “and” joins values, the source holds several entries; their conditions need not be identical. Identical values can stand only once.

Assays:
[1] = target: AURKC (Homo sapiens, UniProt Q9UQB9); test: Kinase activity screening (SelectScreen), AURKC; format: biochemical; details: read-out: kinase activity inhibited
[2] = target: TEK (Homo sapiens, UniProt Q02763, R849W); test: Kinase activity screening (SelectScreen), TEK; format: biochemical; details: kinase TEK (TIE2) R849W; LanthaScreen Binding
[3] = target: TEK (Homo sapiens, UniProt Q02763, Y1108F); test: Kinase activity screening (SelectScreen), TEK; format: biochemical
TEK (Homo sapiens, UniProt Q02763, Y1108F), sequence (Q02763 771-1124 Y1108F): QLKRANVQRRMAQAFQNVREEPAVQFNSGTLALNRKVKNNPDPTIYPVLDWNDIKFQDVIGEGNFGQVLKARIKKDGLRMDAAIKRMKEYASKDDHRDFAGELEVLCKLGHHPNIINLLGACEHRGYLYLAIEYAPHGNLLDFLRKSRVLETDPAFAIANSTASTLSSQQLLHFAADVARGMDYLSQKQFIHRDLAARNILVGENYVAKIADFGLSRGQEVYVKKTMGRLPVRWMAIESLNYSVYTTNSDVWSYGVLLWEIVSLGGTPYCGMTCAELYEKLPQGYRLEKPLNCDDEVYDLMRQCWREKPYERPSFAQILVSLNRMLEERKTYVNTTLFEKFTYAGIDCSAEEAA

[4] = target: TEK (Homo sapiens, UniProt Q02763, Y897S); test: Kinase activity screening (SelectScreen), TEK; format: biochemical; details: kinase TEK (TIE2) Y897S; ZLYTE
TEK (Homo sapiens, UniProt Q02763, Y897S), sequence (Q02763 771-1124 Y897S): as the sequence (Q02763 771-1124 Y1108F) above, with Y127S, F338Y counted along it

[5] = tested on: TEK; test: Kinase activity screening (SelectScreen), TEK; format: biochemical; details: kinase TEK (Tie2); ZLYTE
[6] = target: various kinases (Homo sapiens, UniProt O00311); test: LanthaScreen Eu Kinase Binding Assay, panel of 486 biochemical kinase assays; details: CDC7/DBF4
various kinases (Homo sapiens, UniProt O00311), sequence (O00311 whole entry): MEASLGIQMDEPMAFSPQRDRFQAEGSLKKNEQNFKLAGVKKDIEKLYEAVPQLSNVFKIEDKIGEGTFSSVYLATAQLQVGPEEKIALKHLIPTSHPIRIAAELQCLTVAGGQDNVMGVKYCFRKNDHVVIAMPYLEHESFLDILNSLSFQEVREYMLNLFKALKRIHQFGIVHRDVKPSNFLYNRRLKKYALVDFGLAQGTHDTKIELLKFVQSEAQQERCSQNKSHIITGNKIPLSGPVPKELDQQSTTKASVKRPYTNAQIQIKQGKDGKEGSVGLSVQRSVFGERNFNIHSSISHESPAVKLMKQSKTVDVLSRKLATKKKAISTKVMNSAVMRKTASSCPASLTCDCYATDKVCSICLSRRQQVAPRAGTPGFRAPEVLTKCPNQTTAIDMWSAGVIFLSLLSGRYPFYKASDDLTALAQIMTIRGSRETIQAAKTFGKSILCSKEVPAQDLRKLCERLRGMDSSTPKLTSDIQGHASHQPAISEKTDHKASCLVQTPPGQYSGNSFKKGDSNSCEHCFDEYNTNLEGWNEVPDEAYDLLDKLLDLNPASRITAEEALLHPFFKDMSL

[7] = target: various kinases (Homo sapiens, UniProt P07949, V804M); test: as above; details: kinase RET V804M; LanthaScreen Binding
various kinases (Homo sapiens, UniProt P07949, V804M), sequence (P07949 29-1114 V804M): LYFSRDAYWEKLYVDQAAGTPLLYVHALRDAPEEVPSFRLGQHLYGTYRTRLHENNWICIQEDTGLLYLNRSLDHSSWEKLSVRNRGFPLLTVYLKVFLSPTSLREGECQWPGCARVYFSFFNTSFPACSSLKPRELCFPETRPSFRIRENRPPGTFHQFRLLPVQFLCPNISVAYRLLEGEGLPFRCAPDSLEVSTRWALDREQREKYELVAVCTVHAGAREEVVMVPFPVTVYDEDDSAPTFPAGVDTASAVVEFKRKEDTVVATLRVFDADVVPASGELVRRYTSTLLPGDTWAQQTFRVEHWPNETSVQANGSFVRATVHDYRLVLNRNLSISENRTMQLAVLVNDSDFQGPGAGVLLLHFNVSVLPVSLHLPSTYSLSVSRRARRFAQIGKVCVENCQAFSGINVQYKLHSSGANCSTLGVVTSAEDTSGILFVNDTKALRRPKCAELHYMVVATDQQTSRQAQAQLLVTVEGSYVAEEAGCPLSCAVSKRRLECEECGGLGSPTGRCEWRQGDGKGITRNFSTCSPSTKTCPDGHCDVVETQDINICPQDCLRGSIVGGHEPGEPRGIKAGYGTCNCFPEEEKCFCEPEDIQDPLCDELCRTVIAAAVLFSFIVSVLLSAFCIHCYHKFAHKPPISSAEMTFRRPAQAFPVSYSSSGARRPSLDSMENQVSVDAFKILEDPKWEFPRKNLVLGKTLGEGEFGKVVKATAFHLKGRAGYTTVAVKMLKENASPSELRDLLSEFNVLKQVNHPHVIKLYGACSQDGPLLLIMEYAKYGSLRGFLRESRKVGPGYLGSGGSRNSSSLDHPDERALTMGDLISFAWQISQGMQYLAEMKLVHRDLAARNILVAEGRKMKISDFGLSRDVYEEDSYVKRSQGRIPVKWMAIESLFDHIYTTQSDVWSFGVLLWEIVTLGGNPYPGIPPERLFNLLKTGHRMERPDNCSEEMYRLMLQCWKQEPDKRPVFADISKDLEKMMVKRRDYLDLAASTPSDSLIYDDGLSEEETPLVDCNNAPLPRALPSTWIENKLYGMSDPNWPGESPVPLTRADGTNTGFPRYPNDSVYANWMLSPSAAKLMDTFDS

[8] = target: various kinases (Homo sapiens, UniProt P24941); test: as above
[9] = target: various kinases (Homo sapiens, UniProt P37023); test: as above; details: ACVRL1 (ALK1)
various kinases (Homo sapiens, UniProt P37023), sequence (P37023 22-503): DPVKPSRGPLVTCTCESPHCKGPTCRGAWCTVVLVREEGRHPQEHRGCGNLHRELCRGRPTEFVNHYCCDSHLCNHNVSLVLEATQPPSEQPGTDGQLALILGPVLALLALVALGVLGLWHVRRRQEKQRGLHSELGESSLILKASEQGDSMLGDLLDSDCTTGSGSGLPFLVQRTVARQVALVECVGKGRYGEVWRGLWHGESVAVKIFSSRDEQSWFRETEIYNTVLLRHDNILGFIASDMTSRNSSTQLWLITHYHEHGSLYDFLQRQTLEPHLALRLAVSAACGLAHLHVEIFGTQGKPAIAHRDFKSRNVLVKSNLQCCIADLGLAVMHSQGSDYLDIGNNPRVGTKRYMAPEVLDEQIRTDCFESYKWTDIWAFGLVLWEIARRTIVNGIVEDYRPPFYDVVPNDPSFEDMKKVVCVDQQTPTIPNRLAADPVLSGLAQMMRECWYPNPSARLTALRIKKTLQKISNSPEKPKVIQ

[10] = target: various kinases (Homo sapiens, UniProt P53779); test: as above; details: MAPK10 (JNK3)
various kinases (Homo sapiens, UniProt P53779), sequence (P53779 whole entry): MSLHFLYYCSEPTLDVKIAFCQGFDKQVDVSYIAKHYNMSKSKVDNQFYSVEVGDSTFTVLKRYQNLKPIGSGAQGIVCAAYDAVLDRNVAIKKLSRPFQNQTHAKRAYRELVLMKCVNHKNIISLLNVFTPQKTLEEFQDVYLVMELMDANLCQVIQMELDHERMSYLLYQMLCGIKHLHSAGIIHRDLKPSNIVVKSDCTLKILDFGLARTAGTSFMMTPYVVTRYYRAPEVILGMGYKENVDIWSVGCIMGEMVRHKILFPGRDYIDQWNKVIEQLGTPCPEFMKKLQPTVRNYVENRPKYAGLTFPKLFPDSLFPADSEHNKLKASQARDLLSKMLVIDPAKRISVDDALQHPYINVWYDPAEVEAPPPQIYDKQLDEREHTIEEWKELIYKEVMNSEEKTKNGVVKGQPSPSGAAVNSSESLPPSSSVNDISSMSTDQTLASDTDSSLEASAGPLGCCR

[11] = target: various kinases (Homo sapiens, UniProt Q92918); test: as above; details: MAP4K1 (HPK1)
[12] = target: T1, various kinases (Homo sapiens, UniProt Q9H2K8); test: as above; details: kinase TAOK3 (JIK); LanthaScreen Binding
T1 sequence (Q9H2K8 1-898): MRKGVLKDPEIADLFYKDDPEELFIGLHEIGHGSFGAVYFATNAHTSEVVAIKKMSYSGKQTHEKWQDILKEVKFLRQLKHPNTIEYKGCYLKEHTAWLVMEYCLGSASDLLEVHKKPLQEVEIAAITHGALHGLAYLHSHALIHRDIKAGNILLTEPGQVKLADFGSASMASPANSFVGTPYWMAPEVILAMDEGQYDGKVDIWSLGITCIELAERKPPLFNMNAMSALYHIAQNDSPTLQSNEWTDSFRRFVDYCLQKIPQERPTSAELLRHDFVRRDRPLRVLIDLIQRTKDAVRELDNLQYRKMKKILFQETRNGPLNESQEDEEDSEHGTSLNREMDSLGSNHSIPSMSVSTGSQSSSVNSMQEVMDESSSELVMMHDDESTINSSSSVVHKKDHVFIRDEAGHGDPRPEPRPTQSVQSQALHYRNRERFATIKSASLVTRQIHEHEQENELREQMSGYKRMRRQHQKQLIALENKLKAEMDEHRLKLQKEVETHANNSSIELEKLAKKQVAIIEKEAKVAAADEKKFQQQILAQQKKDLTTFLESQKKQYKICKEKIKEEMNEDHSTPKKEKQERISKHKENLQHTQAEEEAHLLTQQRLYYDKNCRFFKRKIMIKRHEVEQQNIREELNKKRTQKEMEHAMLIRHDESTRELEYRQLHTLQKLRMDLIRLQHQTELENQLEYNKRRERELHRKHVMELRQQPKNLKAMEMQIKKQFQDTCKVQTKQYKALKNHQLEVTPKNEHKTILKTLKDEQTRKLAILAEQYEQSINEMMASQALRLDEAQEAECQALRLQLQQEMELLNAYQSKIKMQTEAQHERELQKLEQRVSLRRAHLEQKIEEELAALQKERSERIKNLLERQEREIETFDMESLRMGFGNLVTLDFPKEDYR

[13] = target: T2, various kinases (Homo sapiens, UniProt Q9UEE5); test: as above; details: kinase STK17A (DRAK1); LanthaScreen Binding
T2 sequence (Q9UEE5 1-414): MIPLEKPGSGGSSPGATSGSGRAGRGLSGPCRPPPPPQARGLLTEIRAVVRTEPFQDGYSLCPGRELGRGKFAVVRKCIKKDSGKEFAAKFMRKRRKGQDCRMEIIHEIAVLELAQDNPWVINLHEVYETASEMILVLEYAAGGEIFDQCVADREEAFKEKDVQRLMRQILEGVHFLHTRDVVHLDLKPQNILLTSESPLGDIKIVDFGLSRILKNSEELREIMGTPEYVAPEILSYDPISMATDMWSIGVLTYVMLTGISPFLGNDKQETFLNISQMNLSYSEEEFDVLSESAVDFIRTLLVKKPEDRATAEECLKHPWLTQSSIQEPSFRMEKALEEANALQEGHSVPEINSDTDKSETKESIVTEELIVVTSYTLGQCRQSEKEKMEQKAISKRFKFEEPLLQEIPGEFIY

[14] = target: various kinases (Homo sapiens, UniProt Q9UM73, F1174L); test: as above; details: ALK F1174L
various kinases (Homo sapiens, UniProt Q9UM73, F1174L), sequence (Q9UM73 19-1620 F1174L): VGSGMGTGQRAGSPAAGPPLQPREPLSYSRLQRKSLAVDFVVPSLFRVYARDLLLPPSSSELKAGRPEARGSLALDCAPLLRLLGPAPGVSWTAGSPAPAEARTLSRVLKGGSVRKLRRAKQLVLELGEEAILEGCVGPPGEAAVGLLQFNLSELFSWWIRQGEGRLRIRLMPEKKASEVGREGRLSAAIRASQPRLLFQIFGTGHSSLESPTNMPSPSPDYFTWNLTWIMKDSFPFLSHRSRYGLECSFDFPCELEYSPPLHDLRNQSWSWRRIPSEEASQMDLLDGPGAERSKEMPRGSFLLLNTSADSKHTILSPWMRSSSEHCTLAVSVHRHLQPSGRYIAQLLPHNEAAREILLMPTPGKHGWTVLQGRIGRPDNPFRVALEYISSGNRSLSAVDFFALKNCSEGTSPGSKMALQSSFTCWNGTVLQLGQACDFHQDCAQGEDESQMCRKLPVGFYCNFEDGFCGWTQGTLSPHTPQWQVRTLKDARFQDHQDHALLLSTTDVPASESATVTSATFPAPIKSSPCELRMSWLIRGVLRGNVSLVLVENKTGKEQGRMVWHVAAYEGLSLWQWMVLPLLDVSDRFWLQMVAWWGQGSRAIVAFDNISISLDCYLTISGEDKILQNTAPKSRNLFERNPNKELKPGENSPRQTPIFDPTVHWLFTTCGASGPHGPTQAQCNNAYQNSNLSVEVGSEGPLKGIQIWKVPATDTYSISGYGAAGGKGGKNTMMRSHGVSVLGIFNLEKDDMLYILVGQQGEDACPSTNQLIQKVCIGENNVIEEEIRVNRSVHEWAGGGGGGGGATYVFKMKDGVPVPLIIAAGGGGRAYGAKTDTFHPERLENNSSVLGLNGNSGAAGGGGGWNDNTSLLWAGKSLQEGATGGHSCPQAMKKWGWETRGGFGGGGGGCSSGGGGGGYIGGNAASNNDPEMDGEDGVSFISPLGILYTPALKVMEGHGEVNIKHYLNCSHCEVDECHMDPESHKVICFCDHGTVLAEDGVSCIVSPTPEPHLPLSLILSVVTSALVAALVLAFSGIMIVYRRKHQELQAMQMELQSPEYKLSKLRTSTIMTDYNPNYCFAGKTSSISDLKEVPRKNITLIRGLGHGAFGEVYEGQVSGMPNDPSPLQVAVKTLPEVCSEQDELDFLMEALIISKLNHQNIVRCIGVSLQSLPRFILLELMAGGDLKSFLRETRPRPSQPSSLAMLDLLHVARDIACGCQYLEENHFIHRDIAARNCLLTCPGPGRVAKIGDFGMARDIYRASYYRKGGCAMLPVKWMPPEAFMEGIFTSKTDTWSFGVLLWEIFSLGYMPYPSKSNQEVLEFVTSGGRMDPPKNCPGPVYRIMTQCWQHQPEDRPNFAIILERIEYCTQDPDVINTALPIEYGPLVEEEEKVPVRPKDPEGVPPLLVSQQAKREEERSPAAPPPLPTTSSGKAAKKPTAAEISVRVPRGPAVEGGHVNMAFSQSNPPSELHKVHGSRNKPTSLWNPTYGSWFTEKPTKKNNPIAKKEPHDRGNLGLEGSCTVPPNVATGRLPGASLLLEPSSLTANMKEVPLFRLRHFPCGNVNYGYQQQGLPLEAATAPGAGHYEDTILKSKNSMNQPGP

[15] = target: various kinases (Homo sapiens, UniProt Q9Y2H1); test: as above; details: kinase STK38L (NDR2); LanthaScreen Binding
various kinases (Homo sapiens, UniProt Q9Y2H1), sequence (Q9Y2H1 whole entry): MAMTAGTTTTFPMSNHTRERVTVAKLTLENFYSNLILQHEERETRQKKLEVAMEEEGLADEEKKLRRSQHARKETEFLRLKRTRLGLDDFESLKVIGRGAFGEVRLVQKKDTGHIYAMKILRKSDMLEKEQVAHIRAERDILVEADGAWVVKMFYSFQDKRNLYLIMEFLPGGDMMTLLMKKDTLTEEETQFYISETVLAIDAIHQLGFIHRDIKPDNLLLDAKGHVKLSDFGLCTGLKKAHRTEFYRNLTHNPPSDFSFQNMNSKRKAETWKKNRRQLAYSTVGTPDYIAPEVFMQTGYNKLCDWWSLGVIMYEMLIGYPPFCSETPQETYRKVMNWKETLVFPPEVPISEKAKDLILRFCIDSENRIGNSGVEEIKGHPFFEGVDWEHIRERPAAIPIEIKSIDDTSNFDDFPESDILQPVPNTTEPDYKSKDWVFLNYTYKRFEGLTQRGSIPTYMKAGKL

[16] = target: hERG K+ channel (Homo sapiens, UniProt Q12809); test: biochemical

Compound: COc1ccc2c(c1)[C@]1(C[C@H]1c1ccc3c(/C=C/c4ccc(CN5C[C@@H](C)O[C@@H](C)C5)cc4)n[nH]c3c1)C(=O)N2 [CFI-400945]
- inhibition at 0.5 µM [1]: 84%
- % Inhibition Duplicate #2 [2]: 87%
- pIC50 [3]: 6.96
- % Inhibition Average [4]: 31%
- % Inhibition Duplicate #1 [4]: 29%
- % Inhibition Duplicate #2 [4]: 32%
- % Inhibition Duplicate #2 [5]: 55%
- % Inhibition [6]: 13% and 16%
- % Inhibition Average [7]: 34%
- % Inhibition Duplicate #1 [7]: 29%
- % Inhibition Duplicate #2 [7]: 39%
- % Inhibition ([8]; CDK2/cyclin A1): 12% and 19%
- % Inhibition ([8]; CDK2/cyclin E1): 9%
- % Inhibition ([8]; CDK2/cyclin O): 13% and 19%
- % Inhibition [9]: 10% and 0%
- % Inhibition [10]: 3% and -3%
- % Inhibition [11]: 45% and 35%
- % Inhibition Average [12]: 10%
- % Inhibition Duplicate #1 [12]: 14%
- % Inhibition Duplicate #2 [12]: 6%
- % Inhibition Average [13]: 19%
- % Inhibition Duplicate #1 [13]: 24%
- % Inhibition Duplicate #2 [13]: 13%
- % Inhibition [14]: 52% and 50%
- % Inhibition Average [15]: 16%
- % Inhibition Duplicate #1 [15]: 10%
- % Inhibition Duplicate #2 [15]: 21%
- pIC50 [16]: < 6.30
